Values of other authors in patent US6413717B1, “Methods for indentifying anti-cancer agents” (Corixa Corporation, priority 1998, dated 2002).

Experiments:
mda-7 = details: IFN-β 2000 U and MEZ 10 ng/mL, agents known to modulate gene expression
human melanoma cells = details: IFN-β 2000 U and MEZ 10 ng/mL

Structure (SMILES): C=C(C)[C@@]12O[C@@]3(c4ccccc4)O[C@@H]1[C@@H]1[C@@H]4O[C@]4(CO)[C@@H](O)[C@]4(O)C(=O)C(C)=C[C@H]4[C@@]1(O3)[C@H](C)[C@H]2OC(=O)/C=C/C=C/c1ccccc1 [mezerein]
- mda-7 expression (mda-7): induce an increase
- proliferative potential (human melanoma cells): irreversible loss of proliferative potential
- terminal differentiation (human melanoma cells): induction of terminal differentiation
